± gives the uncertainty stated by the source.
Assay: xn = mol fraction of the nth substance listed

OC1CCCCC1 + C1CCCCC1
101 kPa
Conditions	viscosity [mPa·s]
303.15 K, x2 = 0.05	19 ± 1
303.15 K, x2 = 0.09	15.63 ± 0.44
303.15 K, x2 = 0.14	12.83 ± 0.36
308 K, x2 = 0.1168	10.68 ± 0.074
308 K, x2 = 0.2322	7.143 ± 0.051
308 K, x2 = 0.3358	4.937 ± 0.037
308 K, x2 = 0.4443	3.51 ± 0.026
308 K, x2 = 0.5452	2.453 ± 0.019
308 K, x2 = 0.6483	1.716 ± 0.013
308 K, x2 = 0.7411	1.326 ± 0.01
308 K, x2 = 0.8311	1.049 ± 0.0083
308 K, x2 = 0.918	0.8891 ± 0.0071
323.15 K, x2 = 0.05	7.54 ± 0.22
323.15 K, x2 = 0.09	6.39 ± 0.18
323.15 K, x2 = 0.14	5.53 ± 0.16

CCCCC + C1CCOC1
viscosity [mPa·s], 101 kPa
Conditions	x2 = 0.1001	x2 = 0.2001	x2 = 0.3001	x2 = 0.4001	x2 = 0.5001	x2 = 0.6001	x2 = 0.7001	x2 = 0.8001	x2 = 0.9001
293.15 K	0.2331 ± 0.011	0.2498 ± 0.011	0.2688 ± 0.012	0.2894 ± 0.012	0.3116 ± 0.013	0.3371 ± 0.014	0.3686 ± 0.014	0.4034 ± 0.015	0.4485 ± 0.017
298.15 K	0.2241 ± 0.01	0.2405 ± 0.011	0.258 ± 0.011	0.2768 ± 0.012	0.2977 ± 0.012	0.3204 ± 0.013	0.347 ± 0.014	0.38 ± 0.015	0.4212 ± 0.016

CCOC(=O)C(C)O (configuration not stated) + C1CCOC1
101 kPa
Conditions	viscosity [mPa·s]
308.15 K, x1 = 0.6999	1.255 ± 0.024
313.15 K, x1 = 0.4001	0.7575 ± 0.014

CS(C)=O + C1CCOC1
298.15 K, 101 kPa
Conditions	viscosity [mPa·s]
x2 = 0.27	1.523 ± 0.013
x2 = 0.52	1.112 ± 0.01
x2 = 0.76	0.7376 ± 0.0083

CCCCC + CC1CCCCC1
viscosity [mPa·s], 101 kPa
Conditions	x2 = 0.0407	x2 = 0.2014	x2 = 0.2807	x2 = 0.3471	x2 = 0.4382	x2 = 0.6005	x2 = 0.681	x2 = 0.7595	x2 = 0.8406	x2 = 0.9199
293.15 K	0.2369 ± 0.003	0.2738 ± 0.0033	0.2958 ± 0.0035	0.3151 ± 0.0037	0.3506 ± 0.004	0.429 ± 0.0049	0.4775 ± 0.0054	0.5323 ± 0.0061	0.5947 ± 0.0069	0.6586 ± 0.0077
298.15 K	0.2277 ± 0.003	0.2567 ± 0.0032	0.2795 ± 0.0034	0.3014 ± 0.0036	0.337 ± 0.0039	0.4124 ± 0.0047	0.4571 ± 0.0053	0.5046 ± 0.0058	0.5587 ± 0.0065	0.6168 ± 0.0073
303.15 K	0.1977 ± 0.0028	0.2381 ± 0.0031	0.2612 ± 0.0033	0.2824 ± 0.0035	0.3164 ± 0.0038	0.3885 ± 0.0045	0.431 ± 0.005	0.4771 ± 0.0056	0.5299 ± 0.0062	0.5849 ± 0.007

CCCCCCCO + CC#N
viscosity [mPa·s], 101 kPa
Conditions	298.15 K	303.15 K	308.15 K
x2 = 0.0959	3.772 ± 0.32	3.561 ± 0.31	2.881 ± 0.25
x2 = 0.2368	2.953 ± 0.26	2.592 ± 0.23	2.277 ± 0.2
x2 = 0.3327	2.267 ± 0.2	2.022 ± 0.18	1.808 ± 0.16
x2 = 0.4126	1.836 ± 0.17	1.634 ± 0.15	1.457 ± 0.13
x2 = 0.5459	1.278 ± 0.12	1.149 ± 0.11	1.047 ± 0.099
x2 = 0.6546	0.943 ± 0.091	0.857 ± 0.084	0.786 ± 0.078
x2 = 0.741	0.716 ± 0.072	0.658 ± 0.067	0.611 ± 0.063
x2 = 0.8119	0.58 ± 0.061	0.547 ± 0.058	0.51 ± 0.055
x2 = 0.8706	0.487 ± 0.053	0.463 ± 0.051	0.433 ± 0.048
x2 = 0.9199	0.423 ± 0.047	0.402 ± 0.046	0.382 ± 0.044
x2 = 0.9633	0.384 ± 0.044	0.366 ± 0.043	0.35 ± 0.041

C[N+](C)(C)CCC[n+]1ccccc1.N#C[N-]C#N.N#C[N-]C#N + CC#N
100 kPa
Conditions	viscosity [mPa·s]
293.15 K, x1 = 0.1999	10.75 ± 1.1
298.15 K, x1 = 0.0999	3.205 ± 0.32
298.15 K, x1 = 0.1999	9.545 ± 0.96
298.15 K, x1 = 0.4999	98.11 ± 10
308.15 K, x1 = 0.2998	20.95 ± 2.1
313.15 K, x1 = 0.2998	18.15 ± 1.8
318.15 K, x1 = 0.7998	117.5 ± 12

CC(=O)CC(C)(C)O + CC(=O)CC(C)C
298.15 K, 101 kPa
Conditions	viscosity [mPa·s]
x2 = 0.1301	2.157 ± 0.021
x2 = 0.2473	1.707 ± 0.017
x2 = 0.3676	1.351 ± 0.013
x2 = 0.4821	1.108 ± 0.011
x2 = 0.5836	0.943 ± 0.009
x2 = 0.6974	0.796 ± 0.008
x2 = 0.8046	0.687 ± 0.007
x2 = 0.9001	0.608 ± 0.006

NS(=O)(=O)O + CC(=O)N(C)C
298 K, 101.33 kPa
Conditions	viscosity [mPa·s]
x1 = 0.02772	1.19 ± 0.014
x1 = 0.05584	1.637 ± 0.019
x1 = 0.08283	2.268 ± 0.027
x1 = 0.1075	3.241 ± 0.038
x1 = 0.33	1.147 ± 0.011
x1 = 0.67	1.499 ± 0.011
